Test results from ChEMBL document CHEMBL3885881, “DrugMatrix”.

Organism: Rattus norvegicus
Test: DrugMatrix - Regimen: Daily Repeat
Type: toxicity, organism-based, Sprague-Dawley
Design: regimen Daily Repeat, gender Male, age 6-8 weeks
Conditions: in vivo, iv, vehicle 100 % SALINE; for ABSOLUTE BASOPHIL / ABSOLUTE EOSINOPHIL / ABSOLUTE LYMPHOCYTE / ABSOLUTE MONOCYTE / ABSOLUTE SEGMENTED NEUTROPHIL / BASOPHIL / EOSINOPHIL / ERYTHROCYTE COUNT / HEMATOCRIT / HEMOGLOBIN / LEUKOCYTE COUNT / LYMPHOCYTE / MEAN CORPUSCULAR HEMOGLOBIN / MEAN CORPUSCULAR HEMOGLOBIN CONCENTRATION / MEAN CORPUSCULAR VOLUME / MONOCYTE / NEUTROPHIL / NUCLEATED RED BLOOD CELLS / PLATELET COUNT: tissue Blood; for ALANINE AMINOTRANSFERASE / ALBUMIN / ALKALINE PHOSPHATASE / ASPARTATE AMINOTRANSFERASE / BLOOD UREA NITROGEN / CARBON DIOXIDE / CHLORIDE / CHOLESTEROL / CREATINE PHOSPHOKINASE / CREATININE / GLUCOSE / LACTATE DEHYDROGENASE / LIPASE / PHOSPHORUS / POTASSIUM / SODIUM / TOTAL BILIRUBIN / TOTAL PROTEIN / URIC ACID: tissue Plasma
[1] = 23 mg/kg, 120 h, dose level Low, time 5 day
[2] = 487 mg/kg, 72 h, dose level High, time 3 day
[3] = 487 mg/kg, 120 h, dose level High, time 5 day

SMILES: Nc1ccn([C@@H]2O[C@H](CO)[C@@H](O)[C@@H]2O)c(=O)n1 [CYTARABINE]
- ABSOLUTE BASOPHIL [1]: 0 CELLS/uL
- ABSOLUTE EOSINOPHIL [1]: 0 CELLS/uL
- ABSOLUTE LYMPHOCYTE [1]: 5539 CELLS/uL
- ABSOLUTE MONOCYTE [1]: 16.67 CELLS/uL
- ABSOLUTE SEGMENTED NEUTROPHIL [1]: 244.33 CELLS/uL
- BASOPHIL [1]: 0%
- EOSINOPHIL [1]: 0%
- ERYTHROCYTE COUNT [1]: 5.12 x10E6/uL
- HEMATOCRIT [1]: 33.83%
- HEMOGLOBIN [1]: 13.53 G/DL
- LEUKOCYTE COUNT [1]: 5.8 x10E3/uL
- LYMPHOCYTE [1]: 95%
- MEAN CORPUSCULAR HEMOGLOBIN [1]: 26.47 pg
- MEAN CORPUSCULAR HEMOGLOBIN CONCENTRATION [1]: 40 G/DL
- MEAN CORPUSCULAR VOLUME [1]: 66.2 fL
- MONOCYTE [1]: 0.33%
- NEUTROPHIL [1]: 4.67%
- NUCLEATED RED BLOOD CELLS [1]: 0 /100WBC
- PLATELET COUNT [1]: 1095.67 x10E3/uL
- ALANINE AMINOTRANSFERASE [1]: 41.67 u/L
- ALBUMIN [1]: 4.1 G/DL
- ALKALINE PHOSPHATASE [1]: 306.67 u/L
- ASPARTATE AMINOTRANSFERASE [1]: 78.33 u/L
- BLOOD UREA NITROGEN [1]: 12.67 mg/dL
- CARBON DIOXIDE [1]: 26.33 mmol/L
- CHLORIDE [1]: 99.33 MEQ/L
- CHOLESTEROL [1]: 67.67 mg/dL
- CREATINE PHOSPHOKINASE [1]: 261.33 u/L
- CREATININE [1]: 0.21 mg/dL
- GLUCOSE [1]: 172 mg/dL
- LACTATE DEHYDROGENASE [1]: 75 u/L
- LIPASE [1]: 11.33 u/L
- PHOSPHORUS [1]: 10.17 mg/dL
- POTASSIUM [1]: 5.08 MEQ/L
- SODIUM [1]: 144.13 MEQ/L
- TOTAL BILIRUBIN [1]: 0.17 mg/dL
- TOTAL PROTEIN [1]: 5.77 G/DL
- URIC ACID [1]: 0.87 mg/dL
- ABSOLUTE BASOPHIL [2]: 0 CELLS/uL
- ABSOLUTE EOSINOPHIL [2]: 62 CELLS/uL
- ABSOLUTE LYMPHOCYTE [2]: 7623.33 CELLS/uL
- ABSOLUTE MONOCYTE [2]: 62 CELLS/uL
- ABSOLUTE SEGMENTED NEUTROPHIL [2]: 686 CELLS/uL
- BASOPHIL [2]: 0%
- EOSINOPHIL [2]: 0.67%
- ERYTHROCYTE COUNT [2]: 4.4 x10E6/uL
- HEMATOCRIT [2]: 28.67%
- HEMOGLOBIN [2]: 11.3 G/DL
- LEUKOCYTE COUNT [2]: 8.43 x10E3/uL
- LYMPHOCYTE [2]: 91.33%
- MEAN CORPUSCULAR HEMOGLOBIN [2]: 25.7 pg
- MEAN CORPUSCULAR HEMOGLOBIN CONCENTRATION [2]: 39.4 G/DL
- MEAN CORPUSCULAR VOLUME [2]: 65.13 fL
- MONOCYTE [2]: 0.67%
- NEUTROPHIL [2]: 7.33%
- NUCLEATED RED BLOOD CELLS [2]: 0 /100WBC
- PLATELET COUNT [2]: 1093.33 x10E3/uL
- ALANINE AMINOTRANSFERASE [2]: 45.67 u/L
- ALBUMIN [2]: 4.07 G/DL
- ALKALINE PHOSPHATASE [2]: 302.33 u/L
- ASPARTATE AMINOTRANSFERASE [2]: 81.33 u/L
- BLOOD UREA NITROGEN [2]: 12 mg/dL
- CARBON DIOXIDE [2]: 31 mmol/L
- CHLORIDE [2]: 101.67 MEQ/L
- CHOLESTEROL [2]: 77.67 mg/dL
- CREATINE PHOSPHOKINASE [2]: 242.33 u/L
- CREATININE [2]: 0.19 mg/dL
- GLUCOSE [2]: 168.33 mg/dL
- LACTATE DEHYDROGENASE [2]: 55.33 u/L
- LIPASE [2]: 10.67 u/L
- PHOSPHORUS [2]: 10.87 mg/dL
- POTASSIUM [2]: 5.4 MEQ/L
- SODIUM [2]: 145.23 MEQ/L
- TOTAL BILIRUBIN [2]: 0.2 mg/dL
- TOTAL PROTEIN [2]: 5.93 G/DL
- URIC ACID [2]: 0.8 mg/dL
- ABSOLUTE BASOPHIL [3]: 0 CELLS/uL
- ABSOLUTE EOSINOPHIL [3]: 10 CELLS/uL
- ABSOLUTE LYMPHOCYTE [3]: 3604.33 CELLS/uL
- ABSOLUTE MONOCYTE [3]: 0 CELLS/uL
- ABSOLUTE SEGMENTED NEUTROPHIL [3]: 152.33 CELLS/uL
- BASOPHIL [3]: 0%
- EOSINOPHIL [3]: 0.33%
- ERYTHROCYTE COUNT [3]: 4.2 x10E6/uL
- HEMATOCRIT [3]: 26.53%
- HEMOGLOBIN [3]: 10.7 G/DL
- LEUKOCYTE COUNT [3]: 3.77 x10E3/uL
- LYMPHOCYTE [3]: 95.67%
- MEAN CORPUSCULAR HEMOGLOBIN [3]: 25.43 pg
- MEAN CORPUSCULAR HEMOGLOBIN CONCENTRATION [3]: 40.37 G/DL
- MEAN CORPUSCULAR VOLUME [3]: 63.07 fL
- MONOCYTE [3]: 0%
- NEUTROPHIL [3]: 4%
- NUCLEATED RED BLOOD CELLS [3]: 0 /100WBC
- PLATELET COUNT [3]: 1216.67 x10E3/uL
- ALANINE AMINOTRANSFERASE [3]: 41.67 u/L
- ALBUMIN [3]: 4.1 G/DL
- ALKALINE PHOSPHATASE [3]: 275.33 u/L
- ASPARTATE AMINOTRANSFERASE [3]: 82.33 u/L
- BLOOD UREA NITROGEN [3]: 13.33 mg/dL
- CARBON DIOXIDE [3]: 26 mmol/L
- CHLORIDE [3]: 100.67 MEQ/L
- CHOLESTEROL [3]: 71.33 mg/dL
- CREATINE PHOSPHOKINASE [3]: 326 u/L
- CREATININE [3]: 0.23 mg/dL
- GLUCOSE [3]: 159 mg/dL
- LACTATE DEHYDROGENASE [3]: 65 u/L
- LIPASE [3]: 11 u/L
- PHOSPHORUS [3]: 9.23 mg/dL
- POTASSIUM [3]: 5.41 MEQ/L
- SODIUM [3]: 145.37 MEQ/L
- TOTAL BILIRUBIN [3]: 0.2 mg/dL
- TOTAL PROTEIN [3]: 5.7 G/DL
- URIC ACID [3]: 0.57 mg/dL
